Among the data in US20080207700A1, “Amino Acid Salts of Rosiglitazone” (priority 2005, published 2008) are solubility and water solubility values, retold here.

Bounds are passed on as bounds.

The nature of this series: physchem. How it is done: The following buffer solutions were used:
Thereafter, the suspensions were treated in an ultrasonic bath for 1 minute, the pH was checked and, where necessary, readjusted to the value given respectively below. Then, the solutions were 0.45 μm filtrated.
The absorption of thus produced solutions was measured at 345 nm.

By solubility is commonly meant how much of the substance goes into solution per volume. Read a high solubility as a readily soluble substance. The compound `CN(CCOc1ccc(CC2SC(=O)NC2=O)cc1)c1ccccn1` (centres unmarked) [Base, 5-(4-/2-(N-methyl-N-(2-pyridyl)amino)ethoxy/benzyl)-2,4-thiazolidinedione] came in with a solubility at 1 min (pH 11.8, aqueous buffer, thermodynamic from solid) greater than 50 mg/mL.

As to `CN(CCOc1ccc(CC2SC(=O)NC2=O)cc1)c1ccccn1.O=C(O)/C=C\C(=O)O` (centres unmarked) [Maleate, rosiglitazone maleate], where the note is “pH 6”, the water solubility is less than 0.1 mg/mL.
